# Reference: PubChem BioAssay (NCI)
#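 Five concentrations, 48 hours, 96-well plates. GI50 = concentration required for 50% inhibition of growth. TGI: concentration producing complete growth inhibition.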
# What was measured:
# Assay in all cases: NCI anticancer screen, dose series, 48 h
# 786-0 renal = tested on: 786-0 renal
# A498 renal = tested on: A498 renal
# A549 NSCLC = tested on: A549 NSCLC
# ACHN renal = tested on: ACHN renal
# BT-549 breast = tested on: BT-549 breast
# CAKI-1 renal = tested on: CAKI-1 renal
# CCRF-CEM leukemia = tested on: CCRF-CEM leukemia
# COLO 205 colon = tested on: COLO 205 colon
# DU-145 prostate = tested on: DU-145 prostate
# EKVX NSCLC = tested on: EKVX NSCLC
# HCC-2998 colon = tested on: HCC-2998 colon
# HCT-116 colon = tested on: HCT-116 colon
# HCT-15 colon = tested on: HCT-15 colon
# HL-60(TB) leukemia = tested on: HL-60(TB) leukemia
# HOP-62 NSCLC = tested on: HOP-62 NSCLC
# HOP-92 NSCLC = tested on: HOP-92 NSCLC
# HS 578T breast = tested on: HS 578T breast
# HT29 colon = tested on: HT29 colon
# IGROV1 ovarian = tested on: IGROV1 ovarian
# K-562 leukemia = tested on: K-562 leukemia
# KM12 colon = tested on: KM12 colon
# LOX IMVI melanoma = tested on: LOX IMVI melanoma
# M14 melanoma = tested on: M14 melanoma
# MALME-3M melanoma = tested on: MALME-3M melanoma
# MCF7 breast = tested on: MCF7 breast
# MDA-MB-231 breast = tested on: MDA-MB-231 breast
# MDA-MB-435 = tested on: MDA-MB-435
# MOLT-4 leukemia = tested on: MOLT-4 leukemia
# NCI-H226 lung = tested on: NCI-H226 lung
smiles,measurement,setting,value
NS(=O)(=O)N(c1cc(C(F)(F)F)cc(C(F)(F)F)c1)C1CCN(Cc2ccc(F)cc2)CC1,GI50,786-0 renal,11.4 µM
same,TGI,786-0 renal,23.5 µM
same,GI50,A498 renal,12.3 µM
same,TGI,A498 renal,26.1 µM
same,GI50,A549 NSCLC,12.4 µM
same,TGI,A549 NSCLC,29.1 µM
same,GI50,ACHN renal,11.2 µM
same,TGI,ACHN renal,23.3 µM
same,GI50,BT-549 breast,12.5 µM
same,TGI,BT-549 breast,24.9 µM
same,GI50,CAKI-1 renal,7.21 µM
same,TGI,CAKI-1 renal,20.4 µM
same,GI50,CCRF-CEM leukemia,12 µM
same,TGI,CCRF-CEM leukemia,36.3 µM
same,GI50,COLO 205 colon,1.64 µM
same,TGI,COLO 205 colon,3.08 µM
same,GI50,DU-145 prostate,13.5 µM
same,TGI,DU-145 prostate,26.3 µM
same,GI50,EKVX NSCLC,11.2 µM
same,TGI,EKVX NSCLC,23.8 µM
same,GI50,HCC-2998 colon,1.83 µM
same,TGI,HCC-2998 colon,3.56 µM
same,GI50,HCT-116 colon,7.38 µM
same,TGI,HCT-116 colon,19.8 µM
same,GI50,HCT-15 colon,7.3 µM
same,TGI,HCT-15 colon,21.8 µM
same,GI50,HL-60(TB) leukemia,9.11 µM
same,TGI,HL-60(TB) leukemia,28.6 µM
same,GI50,HOP-62 NSCLC,3.51 µM
same,TGI,HOP-62 NSCLC,14.1 µM
same,GI50,HOP-92 NSCLC,1.87 µM
same,TGI,HOP-92 NSCLC,15.2 µM
same,GI50,HS 578T breast,13.8 µM
same,TGI,HS 578T breast,33.6 µM
same,GI50,HT29 colon,2.68 µM
same,TGI,HT29 colon,7.51 µM
same,GI50,IGROV1 ovarian,4.89 µM
same,TGI,IGROV1 ovarian,18 µM
same,GI50,K-562 leukemia,3.68 µM
same,TGI,K-562 leukemia,19 µM
same,GI50,KM12 colon,5.16 µM
same,TGI,KM12 colon,17 µM
same,GI50,LOX IMVI melanoma,3.83 µM
same,TGI,LOX IMVI melanoma,13.7 µM
same,GI50,M14 melanoma,6.12 µM
same,TGI,M14 melanoma,18.4 µM
same,GI50,MALME-3M melanoma,2.31 µM
same,TGI,MALME-3M melanoma,9.5 µM
same,GI50,MCF7 breast,5.44 µM
same,TGI,MCF7 breast,18.5 µM
same,GI50,MDA-MB-231 breast,12.1 µM
same,TGI,MDA-MB-231 breast,26.2 µM
same,GI50,MDA-MB-435,6.4 µM
same,TGI,MDA-MB-435,19.7 µM
same,GI50,MOLT-4 leukemia,8.51 µM
same,TGI,MOLT-4 leukemia,29.6 µM
same,GI50,NCI-H226 lung,6.73 µM
same,TGI,NCI-H226 lung,21.7 µM
